For 12 molecules, TGI results are on record in PubChem BioAssay (NCI).

Several values for one entry are separate records, joined by “and”; a condition that tells them apart may be missing. Equal values may be shown once.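 Grown in 96-well plates, cells were treated for 48 hours with each compound at five concentrations. Insufficient inhibition: endpoint recorded as highest concentration tested. TGI denotes the concentration required for complete inhibition of growth.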

Test systems include A549 NSCLC; HS 578T breast; NCI-H460 lung; IGROV1 ovarian; HL-60(TB) leukemia; PC-3 prostate; UO-31 renal; 786-0 renal; A498 renal; UACC-62 melanoma; NCI-H226 lung; SK-MEL-28 melanoma; OVCAR-4 ovarian.
Assay in all cases: inhibition of tumour cell growth, NCI panel, 48 h

Consider `O=C1CC2[C@@H](N3CCCC3)CCC(N1Cc1ccccc1)C2(O)O` (stereo partly drawn), for which the TGI in the assay on A549 NSCLC, in the assay on HS 578T breast, in the assay on NCI-H460 lung, in the assay with IGROV1 ovarian, with HL-60(TB) leukemia and with PC-3 prostate was more than 100 µM each time. The TGI with UO-31 renal, in the assay on 786-0 renal, in the assay with A498 renal, with UACC-62 melanoma, in the assay with NCI-H226 lung and in the assay with SK-MEL-28 melanoma was more than 100 µM throughout.
For `Cn1c(=O)n(-c2c3ccccc3c(Cl)c3ccccc23)n(C(C)(C)C)c1=O`, the TGI with A549 NSCLC, in the assay on HS 578T breast, in the assay on NCI-H460 lung, in the assay on IGROV1 ovarian, with HL-60(TB) leukemia and in the assay with PC-3 prostate was more than 100 µM in each case. The TGI with UO-31 renal, in the assay with 786-0 renal, in the assay with A498 renal, in the assay on UACC-62 melanoma, in the assay with NCI-H226 lung and with SK-MEL-28 melanoma was more than 100 µM each time.
Take `O=[N+]([O-])C(/C(Cl)=C(/Cl)N1CCCCC1)=C1\NCCO1`: the TGI in the assay with A549 NSCLC, in the assay with HS 578T breast, in the assay on NCI-H460 lung, in the assay with PC-3 prostate, with OVCAR-4 ovarian and with UO-31 renal was more than 100 µM each time. In addition, the TGI with 786-0 renal, with A498 renal, in the assay on UACC-62 melanoma, in the assay with NCI-H226 lung and in the assay on SK-MEL-28 melanoma was more than 100 µM throughout.
As to `Cc1ccc(SCC(OCn2cnc3c(N)ncnc32)[C@H](C)F)cc1` (stereo partly drawn), the TGI in the assay on A549 NSCLC, with HS 578T breast, in the assay on NCI-H460 lung, in the assay on IGROV1 ovarian, in the assay with HL-60(TB) leukemia and in the assay on PC-3 prostate was more than 100 µM each time. Also, the TGI in the assay on OVCAR-4 ovarian, in the assay on UO-31 renal, in the assay on 786-0 renal, in the assay on UACC-62 melanoma, with NCI-H226 lung and in the assay with SK-MEL-28 melanoma was more than 100 µM in each case.
On to `O=C1O/C(=C\c2ccc(O)c(Br)c2)C(c2ccc(O)cc2)=C1Cl`, for which the TGI in the assay on A549 NSCLC was more than 100 µM; in the assay on HS 578T breast, more than 100 µM; in the assay with NCI-H460 lung, 76.6 µM; in the assay on IGROV1 ovarian it was more than 100 µM; in the assay on HL-60(TB) leukemia, more than 100 µM; in the assay on PC-3 prostate it was more than 100 µM. For the same molecule, the TGI in the assay with OVCAR-4 ovarian is more than 100 µM; in the assay on UO-31 renal, more than 100 µM; with 786-0 renal it was more than 100 µM; with A498 renal, 77.7 µM; in the assay with UACC-62 melanoma it was more than 100 µM; in the assay on SK-MEL-28 melanoma it was more than 100 µM.
`CCC1(O)CC(OC2CC(N(C)C)C(OC3CC(O)C(OC4OC(C)C(=O)C=C4N)C(C)O3)C(C)O2)c2c(O)c3c(c(O)c2C1C(=O)OC)C(=O)c1cccc(O)c1C3=O` (stereo not drawn): the TGI with HS 578T breast is 0.366 µM and 1.47 µM; with NCI-H460 lung, 0.0151 µM; with HL-60(TB) leukemia, 0.108 µM; in the assay with PC-3 prostate, 0.294 µM and 0.0742 µM; in the assay on 786-0 renal, 0.133 µM and 0.147 µM; in the assay with A498 renal, 0.0129 µM. The TGI in the assay with UACC-62 melanoma was 0.0375 µM; in the assay on NCI-H226 lung, 0.0806 µM; in the assay with SK-MEL-28 melanoma, 0.17 µM and 0.0205 µM.
For `COc1ccc(-c2oc3c(CC(=O)O)cccc3c(=O)c2OC)cc1`, the TGI in the assay on A549 NSCLC was more than 100 µM; in the assay with HS 578T breast, more than 100 µM; in the assay on IGROV1 ovarian, more than 100 µM; in the assay on HL-60(TB) leukemia, more than 100 µM; in the assay on PC-3 prostate, more than 100 µM; in the assay on UO-31 renal, 53.4 µM. Further, the TGI in the assay with 786-0 renal, in the assay on A498 renal, in the assay with UACC-62 melanoma and in the assay on NCI-H226 lung was more than 100 µM in each case.
As to `COC(=O)CCc1ccc2c(c1)CCC2`, the TGI in the assay with A549 NSCLC, in the assay on HS 578T breast, with NCI-H460 lung, in the assay on IGROV1 ovarian, with HL-60(TB) leukemia and with PC-3 prostate was more than 100 µM each time. For the same molecule, the TGI with OVCAR-4 ovarian, in the assay on UO-31 renal, in the assay on 786-0 renal, with UACC-62 melanoma, with NCI-H226 lung and in the assay with SK-MEL-28 melanoma was more than 100 µM each time.
As to `CCOC(=O)CSc1nc2ccccc2c(=O)n1N`, the TGI in the assay on A549 NSCLC, in the assay with HS 578T breast, with NCI-H460 lung, with IGROV1 ovarian, with PC-3 prostate and in the assay with OVCAR-4 ovarian was more than 100 µM in each case. For the same molecule, the TGI in the assay on UO-31 renal, with 786-0 renal, with A498 renal, with UACC-62 melanoma, in the assay with NCI-H226 lung and with SK-MEL-28 melanoma was more than 100 µM throughout.
For the molecule `C=CCNC1=C2C[C@@H](C)C[C@@H](OC)[C@H](OC(=O)CN(C)C)[C@H](C)/C=C(\C)[C@@H](OC(N)=O)[C@H](OC)/C=C\C=C(/C)C(=O)NC(=CC1=O)C2=O`, the TGI in the assay on A549 NSCLC was 16.9 µM; in the assay with HS 578T breast it was 47.7 µM; in the assay with NCI-H460 lung, 15.6 µM; with IGROV1 ovarian it was 13.5 µM; in the assay on HL-60(TB) leukemia, 13.7 µM; with PC-3 prostate, 16.6 µM. Further, the TGI with OVCAR-4 ovarian is 26 µM; in the assay with UO-31 renal, 24.1 µM; with 786-0 renal, 21 µM; in the assay with A498 renal, 19.4 µM; with UACC-62 melanoma, 11.6 µM; in the assay on SK-MEL-28 melanoma, 25.7 µM.
Regarding `CCCSc1cc(Cl)c(C)cc1S(=O)(=O)n1cc[nH]c1=O`, the TGI with A549 NSCLC, with HS 578T breast, in the assay on NCI-H460 lung, in the assay on IGROV1 ovarian, in the assay with PC-3 prostate and in the assay with OVCAR-4 ovarian was more than 100 µM throughout. Also, the TGI with UO-31 renal, in the assay on 786-0 renal, with A498 renal, in the assay on UACC-62 melanoma, with NCI-H226 lung and in the assay on SK-MEL-28 melanoma was more than 100 µM in each case.
Turning to `CN(C(=O)OC(C)(C)C)[C@H]1CCCC[C@H]1N1CCCC1`, the TGI in the assay with A549 NSCLC, in the assay on HS 578T breast, with IGROV1 ovarian, with HL-60(TB) leukemia, with PC-3 prostate and in the assay on OVCAR-4 ovarian was more than 100 µM each time. Further, the TGI in the assay on UO-31 renal, with 786-0 renal, in the assay on A498 renal, in the assay on UACC-62 melanoma, in the assay with NCI-H226 lung and in the assay with SK-MEL-28 melanoma was more than 100 µM in each case.
